Data on 33 compounds can be found in article PMC4048319, “Design and Synthesis of High Affinity Inhibitors of Plasmodium falciparum and Plasmodium vivax N-Myristoyltransferases Directed by Ligand Efficiency Dependent Lipophilicity (LELP)” (Journal of Medicinal Chemistry, 2014).

Data set [1] concerns the target T1, PfNMT (Plasmodium falciparum, UniProt Q9U419).
T1 sequence (Q9U419 1-410): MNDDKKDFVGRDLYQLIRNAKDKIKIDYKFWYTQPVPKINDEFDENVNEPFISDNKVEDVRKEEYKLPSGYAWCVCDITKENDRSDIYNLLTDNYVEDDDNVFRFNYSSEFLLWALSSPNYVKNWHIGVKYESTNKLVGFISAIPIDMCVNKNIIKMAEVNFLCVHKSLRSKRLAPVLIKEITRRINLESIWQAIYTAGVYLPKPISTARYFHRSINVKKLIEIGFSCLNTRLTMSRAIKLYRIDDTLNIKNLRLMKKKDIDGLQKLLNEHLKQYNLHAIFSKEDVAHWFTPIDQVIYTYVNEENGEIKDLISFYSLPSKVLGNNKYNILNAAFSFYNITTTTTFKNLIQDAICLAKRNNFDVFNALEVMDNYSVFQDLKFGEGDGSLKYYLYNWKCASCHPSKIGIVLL
Nature of the data set: LELP (cLogP/LE, PfNMT LE).

For data set [2], the target named is T1, PfNMT. Nature of the data set: NMT enzyme inhibition, CPM fluorescence assay (PfNMT). Conditions: for Ki: Ki calculated from IC50 by Cheng-Prusoff, mean of two or more determinations, read-out: PfNMT Ki. The format is biochemical. The method, then: (§1) All IC50 determinations were carried out using a 7-diethylamino-3-(4′-maleimidylphenyl)-4-methylcoumarin (CPM) fluorescence assay, as described previously for HsNMT1,[45] PvNMT,[46] and PfNMT.[21]
(§2) IC50 values are the mean value of two or more determinations, and standard deviation is within 20% of the IC50 unless otherwise specified. Data were elaborated using Microsoft Office Excel 2010, and IC50 values were determined using GraFit 7.0 (Erithacus Software Ltd., U.K.) by nonlinear regression fitting, which were then quoted as Ki as defined below.
(§3) The Michaelis constant (Km) was 3.64 μM and the substrate concentration was 4.00 μM, resulting in a Ki of 0.008 μM. Km values were calculated as described previously.[45]

The next data set is described as follows: Aqueous solubility. The format is physicochemical. Conditions: data not shown.
The next data set addresses T2, HsNMT1 (Homo sapiens, UniProt P30419).
T2 sequence (P30419 1-496): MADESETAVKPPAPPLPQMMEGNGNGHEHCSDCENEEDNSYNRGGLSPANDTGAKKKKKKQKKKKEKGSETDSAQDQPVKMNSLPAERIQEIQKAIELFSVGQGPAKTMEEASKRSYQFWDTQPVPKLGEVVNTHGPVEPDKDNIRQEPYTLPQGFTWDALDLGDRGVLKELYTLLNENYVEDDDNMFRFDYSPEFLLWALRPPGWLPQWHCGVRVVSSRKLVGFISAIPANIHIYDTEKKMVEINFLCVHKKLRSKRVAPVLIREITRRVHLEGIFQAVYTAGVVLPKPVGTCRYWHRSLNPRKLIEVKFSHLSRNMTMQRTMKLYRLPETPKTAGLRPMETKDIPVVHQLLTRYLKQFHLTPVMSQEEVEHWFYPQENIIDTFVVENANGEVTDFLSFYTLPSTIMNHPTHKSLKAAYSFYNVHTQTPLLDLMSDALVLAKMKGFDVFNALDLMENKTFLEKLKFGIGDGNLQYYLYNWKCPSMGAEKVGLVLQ
Nature of the data set: NMT enzyme inhibition, CPM fluorescence assay (HsNMT1). The format is biochemical. Particulars: ratio of Ki. The method, then: as §1, §2, §3

The next data set concerns P. falciparum Dd2. Nature of the data set: Plasmodium falciparum [3H]hypoxanthine incorporation assay (Dd2). In kind it is cell-based. Particulars: drug-resistant vs drug-sensitive line. The procedure:
This assay was performed by Dr. Sergio Wittlin and Dr. Christian Scheurer at the Swiss Tropical and Public Health Institute and is a modified version of the original hypoxanthine assay published by Desjardins et al.:[47]
Serial drug dilutions were prepared with a multichannel pipet, transferring 100 μL in a 2-fold serial dilution. Wells of rows A served as controls without drug. An amount of 100 μL of infected blood (parasitemia of 0.3%, 2.5% hematocrit) was added to all wells with a multipipette. The control wells (A9–A12) received uninfected blood of 2.5% hematocrit. The plates were incubated in an incubation chamber at 37 °C in an atmosphere containing 93% N2, 4% CO2, 3% O2. After 48 h, an amount of 50 μL of [^3H]hypoxanthine (=0.5 μCi) solution was added to each well of the plate. The plates were incubated for another 24 h. The plates were then harvested with a Betaplate cell harvester (Wallac, Zurich, Switzerland). The dried filters were inserted into a plastic foil with 10 mL of scintillation fluid and counted in a Betaplate liquid scintillation counter (Wallac, Zurich, Switzerland). The results were recorded as counts per minute (cpm) per well at each drug concentration.
Data were analyzed using a graphic program (e.g., Excel) and expressed as percentage of the untreated controls. The 50% inhibitory concentration (IC50) value was evaluated by logit regression analysis.

On the set-up of data set [3]: method as in PMID 24451586. Particulars: previously reported; cited from earlier work.
In a further data set the test system is HepG2 cells. Nature of the data set: in vitro. In kind it is cell-based.
The next data set in a line: in vitro. In kind it is cell-based. Conditions: human.
In a further data set the target is PbNMT (Plasmodium berghei, UniProt A0A509ARF4). Nature of the data set: PbNMT enzyme affinity. The format is biochemical. The procedure:
In addition, 34c was tested against a Plasmodium berghei (Pb) liver stage model to determine whether NMT is likely to be a viable drug target for clearance of liver stage parasites. […] This provides evidence that NMT inhibition is also a promising mechanism for targeting liver stage parasites and may therefore be an effective pathway for the disruption of multiple parasite life stages.

For another data set, the system named is rodent malaria model. Further details: method as in PMID 24451586. Conditions: previously shown; cited from earlier work.
Data set [4] is described as follows: cLogP determined with ChemAxon.
The next data set deals with T3, PvNMT (Plasmodium vivax, UniProt A5K1A2).
T3 sequence (A5K1A2 1-410): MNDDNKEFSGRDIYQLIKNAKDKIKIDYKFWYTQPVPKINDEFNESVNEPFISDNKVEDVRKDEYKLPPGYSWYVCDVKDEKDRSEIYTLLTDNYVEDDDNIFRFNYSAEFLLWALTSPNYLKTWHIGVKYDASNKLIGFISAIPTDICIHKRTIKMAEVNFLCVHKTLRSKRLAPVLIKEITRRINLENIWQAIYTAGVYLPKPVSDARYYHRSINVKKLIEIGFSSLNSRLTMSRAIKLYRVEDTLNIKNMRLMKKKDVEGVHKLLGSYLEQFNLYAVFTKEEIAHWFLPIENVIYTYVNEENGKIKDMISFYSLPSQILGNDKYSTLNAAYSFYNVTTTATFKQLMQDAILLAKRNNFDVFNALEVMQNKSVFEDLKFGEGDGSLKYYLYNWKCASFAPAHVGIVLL
Nature of the data set: NMT enzyme inhibition, CPM fluorescence assay (PvNMT). The format is biochemical. Particulars: relative to 34c. The method, then: as §1, §2, §3

Chain of PbNMT (A0A509ARF4 entry or part of it): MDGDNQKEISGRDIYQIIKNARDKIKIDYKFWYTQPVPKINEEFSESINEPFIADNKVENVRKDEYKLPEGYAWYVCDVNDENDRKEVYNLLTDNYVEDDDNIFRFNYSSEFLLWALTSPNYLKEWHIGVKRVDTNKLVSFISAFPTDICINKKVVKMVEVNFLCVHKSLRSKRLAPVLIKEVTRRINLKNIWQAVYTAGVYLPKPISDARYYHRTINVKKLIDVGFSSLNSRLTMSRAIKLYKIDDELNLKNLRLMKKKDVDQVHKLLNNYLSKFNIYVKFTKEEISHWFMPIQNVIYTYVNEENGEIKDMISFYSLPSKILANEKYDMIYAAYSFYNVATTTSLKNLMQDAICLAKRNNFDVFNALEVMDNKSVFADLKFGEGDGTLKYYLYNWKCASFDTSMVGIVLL

Regarding `O=C(OCCCc1ccccc1)c1sc2ccccc2c1OC1CCNCC1` [4d], at PfNMT [1], the LELP is 18.6. A word on the Ki: it is the equilibrium dissociation constant of an inhibitor or competing ligand from its target. `O=C(NCCCc1ccccc1)c1sc2ccccc2c1OC1CCNCC1` [6b]: the inhibitory constant (Ki) on PfNMT [2] is more than 10 µM. For the compound `COc1cccc(Cc2noc(-c3sc4ccccc4c3OC3CCNCC3)n2)c1` [9c], the LELP at PfNMT [1] was found to be 12.5. Regarding `O=C(NCCOc1ccccc1)c1sc2ccccc2c1OC1CCNCC1` [6c], the Ki at PfNMT [2] was more than 10 µM. Take `OC(c1ccccc1)c1nnc(-c2sc3ccccc3c2OC2CCNCC2)o1` (stereo not drawn) [23g]: the LELP on PfNMT [1] turned out to be 7.9. The same measure, in the same setting: the same measure for `c1ccc(Cc2noc(-c3sc4ccccc4c3OC3CCNCC3)n2)cc1` [9a, 3-Benzyl-5-(3-(piperidin-4-yloxy)benzo[b]thiophen-2-yl)-1,2,4-oxadiazole]: 12.4; for `FC(F)(c1ccccc1)c1nnc(-c2sc3ccccc3c2OC2CCNCC2)o1` [23d]: 13.8.

`O=C(OCCOc1ccccc1)c1sc2ccccc2c1OC1CCNCC1` [4e] showed an LELP at PfNMT [1] of 14.1. `Clc1cccc(Cc2noc(-c3sc4ccccc4c3OC3CCNCC3)n2)c1` [9d] came in with an LELP at PfNMT [1] of 15.3. As for `O=C(NCCc1ccccc1)c1sc2ccccc2c1OC1CCNCC1` [6a], the Ki at PfNMT [2] is more than 10 µM. Turning to `c1ccc(CCc2noc(-c3sc4ccccc4c3OC3CCNCC3)n2)cc1` [9b, 3-Phenethyl-5-(3-(piperidin-4-yloxy)benzo[b]thiophen-2-yl)-1,2,4-oxadiazole], the LELP on PfNMT [1] was 15.2.

In turn, `COc1cccc(CCOC(=O)c2sc3ccccc3c2OC2CCNCC2)c1` [4b, 3-Methoxyphenethyl 3-(Piperidin-4-yloxy)benzo[b]thiophene-2-carboxylate] showed an LELP on PfNMT [1] of 13.2. Further, the “improvement in enzyme affinity (PfNMT) relative to 1” value at PfNMT [2] came to 6 fold. With `COc1cccc(Cc2nc(-c3sc4ccccc4c3OC3CCNCC3)no2)c1` [14b, 5-(3-Methoxybenzyl)-3-(3-(piperidin-4-yloxy)benzo[b]thiophen-2-yl)-1,2,4-oxadiazole], the LELP at PfNMT [1] was 12.4. The same measure, in the same setting: the same measure for `Cc1nn(C)c(C)c1CCc1nnc(-c2sc3ccccc3c2OC2CCNCC2)o1` [35c]: 8.2. On to `c1ccc(Cc2nnc(-c3sc4ccccc4c3OC3CCNCC3)o2)cc1` [20a], for which, on PfNMT [1], the LELP amounted to 9.5. Consider `COc1cc(Cc2noc(-c3sc4ccccc4c3OC3CCNCC3)n2)cc(OC)c1` [9e], for which the solubility entry in “Aqueous solubility” is “very low”. The same compound had an LELP on PfNMT [1] of 11.8. Regarding `Cc1noc(C)c1Cc1nnc(-c2sc3ccccc3c2OC2CCNCC2)o1` [34b], the “selectivity between PfNMT and HsNMT” value on HsNMT1 is given as 8- to 9 fold. This compound had an LELP at PfNMT [1] of 6.1.

`Cc1n[nH]c(C)c1CCc1nnc(-c2sc3ccccc3c2OC2CCNCC2)o1` [35a]: the LELP on PfNMT [1] came to 7.8. `CC(c1ccccc1)c1nnc(-c2sc3ccccc3c2OC2CCNCC2)o1` (stereo not drawn) [23a, 2-(1-Phenylethyl)-5-(3-(piperidin-4-yloxy)benzo[b]thiophen-2-yl)-1,3,4-oxadiazole] came in with an LELP on PfNMT [1] of 12.5. Same read-out and setting: the same measure for `COC(c1ccccc1)c1nnc(-c2sc3ccccc3c2OC2CCNCC2)o1` (stereo not drawn) [23f]: 10.5; for `Cc1noc(C)c1CCc1nnc(-c2sc3ccccc3c2OC2CCNCC2)o1` [35b]: 7.9. One may read the aqueous solubility as the dissolved amount per volume that the medium holds. The term EC50 denotes the concentration that produces a half-maximal response. A high value points to lower potency in that assay. As for `Cc1nn(C)c(C)c1Cc1nnc(-c2sc3ccccc3c2OC2CCNCC2)o1` [34c, 2-(3-(Piperidin-4-yloxy)benzo[b]thiophen-2-yl)-5-((1,3,5-trimethyl-1H-pyrazol-4-yl)methyl)-1,3,4-oxadiazole], the “selectivity between PfNMT and HsNMT” value on HsNMT1 was 8- to 9 fold. Also, the “loss of potency between NF54 and Dd2” value with P. falciparum Dd2 was “less than 4 fold”. For the same compound, the aqueous solubility in data set [3] is recorded as more than 8 mM. The compound also returned an LELP at PfNMT [1] of 5.5. For the same compound, in the data set with HepG2 cells (human, 72 h), the “HepG2 LD50” value is 12 300 nM and the “HepG2 LD50 (approximate)” value is approximately 10 µM. In the data set with HepG2 cells (up to), the “selectivity between parasitic and HepG2 cell lines” value was approximately 40 fold. This compound also had an EC50 at 72 h in the data set “in vitro” of 12.3 µM. Besides, at PbNMT, the affinity, expressed as Ki, was 0.014 µM. Moreover, the “improvement in enzyme affinity (PfNMT) relative to 1” value at PfNMT [2] is given as 100 fold. Also, in the data set with rodent malaria model, the parasitemia in vivo result was “reduce parasitemia in vivo”. The “reduction in lipophilicity relative to 1” value in data set [4] is listed as 100 fold. With `c1ccc(Cc2nc(-c3sc4ccccc4c3OC3CCNCC3)no2)cc1` [14a], the LELP on PfNMT [1] is given as 12.8. Still for that read-out and setting: the same measure for `O=C(OCCc1ccccc1)c1sc2ccccc2c1OC1CCNCC1` [4a]: 14.3. For `O=C1C(O)=C([C@H]2CC[C@H](c3ccc(Cl)cc3)CC2)C(=O)c2ccccc21` [compound 37, atovaquone, reference compound], the “HepG2 LD50” value in the data set on HepG2 cells (human, 72 h) is listed as >10 000 nM.

For the compound `c1ccc(Cc2n[nH]c(-c3sc4ccccc4c3OC3CCNCC3)n2)cc1` [compound 18], on PfNMT [1], the LELP came to 9.5.

Compound `COc1cccc(Cc2nnc(-c3sc4ccccc4c3OC3CCNCC3)o2)c1` [20b] registered an LELP at PfNMT [1] of 9.2. `c1ccc(C2(c3nnc(-c4sc5ccccc5c4OC4CCNCC4)o3)CC2)cc1` [23c] came in with an LELP at PfNMT [1] of 12.2.

Take `COc1cc(CCOC(=O)c2sc3ccccc3c2OC2CCNCC2)cc(OC)c1` [4c]: the LELP at PfNMT [1] stood at 12.4.

In the case of `Cc1n[nH]c(C)c1Cc1nnc(-c2sc3ccccc3c2OC2CCNCC2)o1` [34a], at PvNMT, the “lower binding affinity to PvNMT than 34c” value is recorded as approximately 40 fold. On PfNMT [1], the LELP is on record as 5.6. For the compound `COc1cc(Cc2nc(-c3sc4ccccc4c3OC3CCNCC3)no2)cc(OC)c1` [14c], the LELP on PfNMT [1] came to 11.8.

For the compound `CC(C)(c1ccccc1)c1nnc(-c2sc3ccccc3c2OC2CCNCC2)o1` [23b], the LELP on PfNMT [1] turned out to be 14.1. Same read-out and setting: to `c1ccc(C(c2ccccc2)c2nnc(-c3sc4ccccc4c3OC3CCNCC3)o2)cc1` [23e] belongs 19.4.
